Data reported in patent EP0796090B1, “CROSS-LINKED MICROPARTICLES AND THEIR USE AS T[…]” (Elan Drug Delivery Limited, priority 1994, dated 1996).

Test system: HSN cell line
Assay: In vitro cytotoxic activity, MTT assay
Format: cell-based, rat
Details: HSN cells; for Emax: Rattus norvegicus, read-out: maximum reduction in cell activity
Description: Cytotoxic activity of the drug-microcapsule conjugates of Examples 5 to 7 was measured in vitro. The HSN cell line was used. This is a chemically-induced rat colonic sarcoma, which produces liver tumours in an animal model with a vascular pattern similar to that seen in human colorectal liver metastases. Cell kill was measured indirectly using MTT. This is reduced in active mitochondria to formazan, a coloured metabolite. HSN cells were incubated in multi-well plates to which was added a control dose of drug or drug-microcapsule lysate. After a range of exposure times, MTT was added to the wells and the concentration of formazan measured as an indication of […]. The assay was calibrated for this cell line against a range of known cell numbers.

Molecule | maximum reduction in cell activity | steepest part of the dose response curve [µg/mL] | Emax [%]
2-fluoro-5-deoxyuridine [Example 5-FUdR] | approximately 80% |  | 
COc1cccc2c1C(=O)c1c(O)c3c(c(O)c1C2=O)C[C@@](O)(C(=O)CO)C[C@@H]3O[C@H]1C[C@H](N)[C@H](O)[C@H](C)O1 [doxorubicin] |  | ≤ 0.1 | ~80
CN(Cc1cnc2nc(N)nc(N)c2n1)c1ccc(C(=O)N[C@@H](CCC(=O)O)C(=O)O)cc1 [methotrexate] |  |  | ~80
